Assay results from PMC3973950, “Synthesis of 5-arylidine amino-1,3,4-thiadiazol-2-[(N-substituted benzyol)]sulphonamides endowed with potent antioxidants and anticancer activity induces growth inhibition in HEK293, BT474 and NCI-H226 cells” (Medicinal Chemistry Research, 2013).

Key:
[1] = In vitro cytotoxicity by MTT assay, NCI-H226; assay type: cell-based; conditions: human, NCI-H226 lung cancer cells, 0.015 μM, read-out: % Cytotoxicity (100 − % cell survival) of NCI-H226 cell line
Summary of the method: (§1)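 After 72 h of compound exposure at 37 °C in 5 % CO2, MTT was added for 4 h and the propanol-solubilised formazan was read at 490 nm. Monolayers (~10,000 cells/well, RPMI-1640 plus 10 % newborn calf serum) had been allowed to form for 24 h beforehand.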

[2] = system: NCI-H226 (lung cancer cell line); assay: In vitro cytotoxicity by MTT assay, NCI-H226; assay type: cell-based; conditions: 72 h
Summary of the method: as §1

[3] = system: HEK 293, M468 and NCI-H226; assay: In vitro cytotoxicity by MTT assay, summary over all cell lines; assay type: cell-based; conditions: on all cell lines
Description: The cancer cell line cultures of HEK 293 ([…]), BT474 (breast cancer cell line) and NCI-H226 (lung cancer) were obtained from Pasteur Institute of India, Coonoor, India, and were cultured in RPMI-1640 and 10 % heat-[…] New born calf serum with antibiotics [penicillin ([…]), streptomycin (100 μg/mL) and amphotericin B (25 μg/mL)]. The cells were maintained at 37 °C in a humidified atmosphere with 5 % CO2 and were subcultured twice a week.
The monolayer cell culture (100 μL) was trypsinized, and the cell count was adjusted to […] using medium containing 10 % new born calf serum. To each well of the 96-well microtitre plate, the diluted cell suspension (approximately 10,000 cells) (0.1 mL) was added and kept for 24 h in incubator at 37 °C in 5 % CO2 atmosphere for cell monolayer formation. After 24 h, when a partial monolayer was formed at the bottom of the well, the supernatant was flicked off, the monolayer was washed once, and different drugs, i.e. synthesized compounds (100 μL), were added to the cells in microtitre plates. The plates were then incubated at 37 °C for 3 days in 5 % CO2 atmosphere, and microscopic examination was carried out and observations recorded every 24 h. After 72 h, the sample solution in the wells was flicked off; MTT dye ([…]) was added to each well; plates were gently shaken and incubated for 4 h at 37 °C in 5 % CO2 incubator. The supernatant was removed and propanol (50 μL) was added; the plates were gently shaken to solubilize the formed formazan. The absorbance was measured using a microplate reader at a wavelength of 490 nm (Edmondson et al., [1988]; Prasad et al., [2005]; Chiruvella et al., [2008]; Chang et al., [2007]).

[4] = In vitro cytotoxicity by MTT assay, HEK 293; assay type: cell-based, human; conditions: human, HEK 293 cells, read-out: % cytotoxicity (100 − % cell survival) of HEK 293 cell line
Summary of the method: as §1

[5] = system: BT474 (breast cancer cell line); assay: In vitro cytotoxicity by MTT assay, BT474; assay type: cell-based; conditions: 72 h
Summary of the method: as §1

[6] = system: root meristem cells of Allium cepa; assay: In vitro antimitotic activity and cytogenetic analysis, Allium cepa meristem root model; assay type: cell-based; conditions: compounds 1 mg/mL, PC (EMS) 2 × 10^−2 M
Description: Small bulbs (1.5–2.0 cm in diameter) of the common onion, A. cepa (2n = 16), were purchased from vendor at a local market. Prior to initiating the test, the outer scales of the bulbs and the dry bottom plate were removed without destroying the root primordia. The roots of A. cepa were grown in distilled water in Erlenmeyer flasks (200 mL capacity) under laboratory conditions (dark 24 °C). For each synthesized compound sample, after reaching a length of 3 cm (±0.5 cm), a series of six bulbs were placed in distilled water (pH 7.3) for 48 h and then onion roots were treated with the synthesized compound at 1 mg/mL concentrations of each tested compound. The test tubes were kept in an incubator at 22 ± 1 °C, and the test samples were changed daily at the same time. Several of the newly formed root tips were then cut from each bulb and examined for any visible morphological abnormalities. The bulbs with satisfactory root lengths (2–2.5 cm) were used in the study, while those with exceptionally long or short roots were discarded (on average 2–3 bulbs). Therefore, individual sets of five bulbs were used for each extract sample.
Distilled water (pH 7.3) was used as a negative control, and EMS (2 × 10^−2 M) used as a positive control mutagen (Fiskesjo, [1993], [1997]). After 24 h of exposure, several root tips were removed from the bulbs, fixed in 3:1 (v/v) ethanol (90 %)/glacial acetic acid (45 %) and stored overnight at 4 °C. The next day, they were placed in 70 % (v/v) aqueous alcohol and refrigerated until used. Allium roots were softened by digesting with HCl and rinsed the roots in water. After removing the water from the third rinse, the roots were covered with the orcein acetate stain. The roots were incubated in the stain for 12 min. During this time, the very tip of the root begins to turn red as the DNA stains the numerous small actively dividing cells at the tip. A root was transferred to the centre of a clean microscope slide, and a drop of water was added. Using a razor blade most of the unstained part of the root was cut off and discarded. The root tip was covered with a cover slip and then carefully pushed down on the cover slide with the wooden end of a dissecting probe. […] The root tip should spread out to a diameter about 0.5–1 cm. Five slides were prepared per bulb.
The following parameters were used for the determination of cytotoxicity and genotoxicity: • (i) the mitotic index (MI) was calculated as the ratio between the number of mitotic cells and the total number of cells scored and expressed as percentage using following formula as per standard procedures. Mitoticindex=Numberofdividingcells/Totalnumberofcells×100 • (ii) Chromatin aberrations (stickiness, breaks and polar deviation) were used as end points for the determination of cytogenetic effects, and micronuclei (MNC) were scored in interphase cells per 1,000 cells (‰ MNC) (Freshney, [2000]). • (iii) The most frequent abnormalities are shown in microphotographs. After 72 h of exposure to the test samples, the root lengths were measured and used as an index of general toxicity. The results for mitotic index and root length are expressed as percentage of the negative and positive controls. Visible morphological modifications, such as changes in root consistency and colour as well as the presence of swelling (c-tumours), hooks or twists in the roots, were also observed.

[7] = system: HEK 293 (human epidermal kidney cell line); assay: In vitro cytotoxicity by MTT assay, HEK 293; assay type: cell-based; conditions: 72 h
Summary of the method: as §1

Nc1nnc(S(=O)(=O)NC(=O)c2ccccc2)s1 [Compound 4a, 5-amino-1,3,4-thiadiazol-2-[N-(benzoyl)]sulphonamide]
cytotoxicity at 72 h, 0.015 µM [1]: 23.1% | cytotoxicity at 0.005 µM ([2]; Homo sapiens, NCI-H226, 0.005 μM, read-out: % Cytotoxicity (100 − % cell survival) of NCI-H226 cell line): 22.4% | cytotoxicity at 0.045 µM ([2]; Homo sapiens, NCI-H226, 0.045 μM, read-out: % Cytotoxicity (100 − % cell survival) of NCI-H226 cell line): 24.2% | cytotoxicity at 0.13 µM ([2]; Homo sapiens, NCI-H226, 0.13 μM, read-out: % Cytotoxicity (100 − % cell survival) of NCI-H226 cell line): 24.9% | cytotoxicity at 0.41 µM ([2]; Homo sapiens, NCI-H226, 0.41 μM, read-out: % Cytotoxicity (100 − % cell survival) of NCI-H226 cell line): 25.5% | cytotoxicity at 1.23 µM ([2]; Homo sapiens, NCI-H226, 1.23 μM, read-out: % Cytotoxicity (100 − % cell survival) of NCI-H226 cell line): 26.1% | cytotoxicity at 3.7 µM ([2]; Homo sapiens, NCI-H226, 3.7 μM, read-out: % Cytotoxicity (100 − % cell survival) of NCI-H226 cell line): 26.6% | cytotoxicity at 11.11 µM ([2]; Homo sapiens, NCI-H226, 11.11 μM, read-out: % Cytotoxicity (100 − % cell survival) of NCI-H226 cell line): 27.1% | cytotoxicity at 33.33 µM ([2]; Homo sapiens, NCI-H226, 33.33 μM, read-out: % Cytotoxicity (100 − % cell survival) of NCI-H226 cell line): 27.5% | cytotoxicity at 100 µM ([2]; Homo sapiens, NCI-H226, 100 μM, read-out: % Cytotoxicity (100 − % cell survival) of NCI-H226 cell line): 27.9% | cytotoxic activity compared with all synthesized compounds [3]: less activity | cytotoxicity at 72 h, 0.005 µM ([4]; 0.005 μM): 25.6% | cytotoxicity at 72 h, 0.015 µM ([4]; 0.015 μM): 25.8% | cytotoxicity at 72 h, 0.045 µM ([4]; 0.045 μM): 26.6% | cytotoxicity at 72 h, 0.13 µM ([4]; 0.13 μM): 26.9% | cytotoxicity at 72 h, 0.41 µM ([4]; 0.41 μM): 28.2% | cytotoxicity at 72 h, 1.23 µM ([4]; 1.23 μM): 28.5% | cytotoxicity at 72 h, 3.7 µM ([4]; 3.7 μM): 28.9% | cytotoxicity at 72 h, 11.11 µM ([4]; 11.11 μM): 29.5% | cytotoxicity at 72 h, 33.33 µM ([4]; 33.33 μM): 31.7% | cytotoxicity at 72 h, 100 µM ([4]; 100 μM): 33% | cytotoxicity at 0.005 µM ([5]; Homo sapiens, BT-474, 0.005 μM, read-out: % cytotoxicity (100 − % cell survival) of BT474 cell line): 20.1% | cytotoxicity at 0.015 µM ([5]; Homo sapiens, BT-474, 0.015 μM, read-out: % cytotoxicity (100 − % cell survival) of BT474 cell line): 22.6% | cytotoxicity at 0.045 µM ([5]; Homo sapiens, BT-474, 0.045 μM, read-out: % cytotoxicity (100 − % cell survival) of BT474 cell line): 23.1% | cytotoxicity at 0.13 µM ([5]; Homo sapiens, BT-474, 0.13 μM, read-out: % cytotoxicity (100 − % cell survival) of BT474 cell line): 24.6% | cytotoxicity at 0.41 µM ([5]; Homo sapiens, BT-474, 0.41 μM, read-out: % cytotoxicity (100 − % cell survival) of BT474 cell line): 25.4% | cytotoxicity at 1.23 µM ([5]; Homo sapiens, BT-474, 1.23 μM, read-out: % cytotoxicity (100 − % cell survival) of BT474 cell line): 25.9% | cytotoxicity at 3.7 µM ([5]; Homo sapiens, BT-474, 3.7 μM, read-out: % cytotoxicity (100 − % cell survival) of BT474 cell line): 26.3% | cytotoxicity at 11.11 µM ([5]; Homo sapiens, BT-474, 11.11 μM, read-out: % cytotoxicity (100 − % cell survival) of BT474 cell line): 27.4% | cytotoxicity at 33.33 µM ([5]; Homo sapiens, BT-474, 33.33 μM, read-out: % cytotoxicity (100 − % cell survival) of BT474 cell line): 28.1% | cytotoxicity at 100 µM ([5]; Homo sapiens, BT-474, 100 μM, read-out: % cytotoxicity (100 − % cell survival) of BT474 cell line): 28.7%

N-({5-[(3-Nitrobenzylidene)amino]-1,3,4-thiadiazol-2-yl}sulfonyl)benzamide [Compound 9i]
% Cytotoxicity (100 − % cell survival) of NCI-H226 cell line ([2]; 0.005 μM): 33.61% | % Cytotoxicity (100 − % cell survival) of NCI-H226 cell line ([2]; 0.015 μM): 33.92% | % Cytotoxicity (100 − % cell survival) of NCI-H226 cell line ([2]; 0.045 μM): 33.97% | % Cytotoxicity (100 − % cell survival) of NCI-H226 cell line ([2]; 0.13 μM): 34.14% | % Cytotoxicity (100 − % cell survival) of NCI-H226 cell line ([2]; 0.41 μM): 34.59% | % Cytotoxicity (100 − % cell survival) of NCI-H226 cell line ([2]; 1.23 μM): 34.95% | % Cytotoxicity (100 − % cell survival) of NCI-H226 cell line ([2]; 3.7 μM): 35.27% | % Cytotoxicity (100 − % cell survival) of NCI-H226 cell line ([2]; 11.11 μM): 36.72% | % Cytotoxicity (100 − % cell survival) of NCI-H226 cell line ([2]; 33.33 μM): 38.57% | % Cytotoxicity (100 − % cell survival) of NCI-H226 cell line ([2]; 100 μM): 38.66% | Aberrant cells (%) ± SEM [6]: 22.41 ± 6.18% | Chromosome breaks (%) ± SEM [6]: 7.33 ± 2.06% | MNC (‰) ± SEM (micronuclei per 1,000 cells) [6]: 0.61 ± 0.15 ‰ | Polar deviations (%) ± SEM [6]: 6.57 ± 1.33% | Stickiness (%) ± SEM [6]: 7.35 ± 2.06% | MI (%) ± SEM (mitotic index) ([6]; lower MI = higher activity, negative control 6.22): 3.07 ± 0.22% | % cytotoxicity (100 − % cell survival) of HEK 293 cell line ([7]; 0.005 μM): 33.04% | % cytotoxicity (100 − % cell survival) of HEK 293 cell line ([7]; 0.015 μM): 34.46% | % cytotoxicity (100 − % cell survival) of HEK 293 cell line ([7]; 0.045 μM): 35.12% | % cytotoxicity (100 − % cell survival) of HEK 293 cell line ([7]; 0.13 μM): 36.32% | % cytotoxicity (100 − % cell survival) of HEK 293 cell line ([7]; 0.41 μM): 36.69% | % cytotoxicity (100 − % cell survival) of HEK 293 cell line ([7]; 1.23 μM): 37.03% | % cytotoxicity (100 − % cell survival) of HEK 293 cell line ([7]; 3.7 μM): 37.19% | % cytotoxicity (100 − % cell survival) of HEK 293 cell line ([7]; 11.11 μM): 38.84% | % cytotoxicity (100 − % cell survival) of HEK 293 cell line ([7]; 33.33 μM): 39.51% | % cytotoxicity (100 − % cell survival) of HEK 293 cell line ([7]; 100 μM): 43.48% | % cytotoxicity (100 − % cell survival) of BT474 cell line ([5]; 0.005 μM): 31.52% | % cytotoxicity (100 − % cell survival) of BT474 cell line ([5]; 0.015 μM): 33.31% | % cytotoxicity (100 − % cell survival) of BT474 cell line ([5]; 0.045 μM): 34.59% | % cytotoxicity (100 − % cell survival) of BT474 cell line ([5]; 0.13 μM): 35.42% | % cytotoxicity (100 − % cell survival) of BT474 cell line ([5]; 0.41 μM): 36.12% | % cytotoxicity (100 − % cell survival) of BT474 cell line ([5]; 1.23 μM): 36.73% | % cytotoxicity (100 − % cell survival) of BT474 cell line ([5]; 3.7 μM): 37.56% | % cytotoxicity (100 − % cell survival) of BT474 cell line ([5]; 11.11 μM): 39.19% | % cytotoxicity (100 − % cell survival) of BT474 cell line ([5]; 33.33 μM): 40.50% | % cytotoxicity (100 − % cell survival) of BT474 cell line ([5]; 100 μM): 41.29%
